Measurements reported in patent publication US20150044244A1, “COMBINED FACILITATOR, ANTIGEN AND DNA VACCINE FOR PREVENTING AND TREATING AUTOIMMUNE DISEASES” (BEIJING ADVANCCINE BIOTECHNOLOGY CO. LTD., priority 2011, published 2015).

Test system: naive CD4+CD25− T cells
Assay: In vitro induction of iTregs by DCreg with cytokine blockade
Type: cell-based, mice
Conditions: blockade during co-culture (stage 1)
Experimental: In vitro T cell priming assays. To generate CD4^+CD25^−Foxp3^+ cells in vitro, Naive CD11c^+ dendritic cells (2×10^5) were cultured in 6-well, and stimulated with pVAX-Derp1 (10 μg/ml) plus Derp1 peotein (10 μg/ml) in the present of anti-IL10 or TGF-β for 48 hrs. Three groups of dendritic cells pretreated were added to culture medium with naive CD4^+CD25^− T cells (1×10^6) in RPMI 1640 each 48 hrs for 3 times. And then GFP expression in CD4^+CD25^− T cells were analyzed by FACS. To check the roles of cytokines during DCreg induce iTregs, we co-cultured CD11c^+ DC pretreated with pVAX-Derp1 (10 μg/ml) plus Derp1 peotein (10 μg/ml) with naive T cells, synchronously, plus anti-IL-10, anti-TGF-β or TGF-β receptor inhibitor, SB-525334 (14.3 nM) each 48 hrs for 3 times. […]
As reported, blockade of TGF-β and IL-10 could demolish the development and suppressive function of iTregs. […] The roles of TGF-β and IL-10 were detected during the induction of iTregs by DCreg in vitro. GFP expression in CD4^+CD25^− T cells was detected after 72 hrs of co-culture with CD11C^+ DCreg 3 times each two days in the presence of anti-IL-10 or anti-TGF-β as stage 1 in FIG. 13A. […]

Cc1cccc(-c2[nH]c(C(C)(C)C)nc2-c2ccc3nccnc3c2)n1 [SB-525334]
generation of CD4+CD25−GFP+ iTregs by DCreg: could decrease the iTreg induction
